Experimental data reported in patent US11395822B2, “Methods for treating Huntington's disease” (PTC Therapeutics, Inc., priority 2017, dated 2022).

test system: Endogenous Huntingtin Protein; test: Endogenous Huntingtin Protein Assay (ELISA-based MSD electrochemiluminescence); assay type: cell-based; conditions: MSD plates coated with MW1 (expanded polyglutamine) or MAB2166 capture antibody
Experimental: Compounds of Formula (I) were tested using the Meso Scale Discovery (MSD) Assay provided in International Application No. PCT/US2016/066042, filed on Dec. 11, 2016 and claiming priority to U.S. Provisional Application U.S. 62/265,652 filed on Dec. 10, 2015, and published as International Publication No. WO 2017/100726 on Jun. 15, 2017, the entire contents of which are incorporated herein by reference.
The Endogenous Huntingtin Protein assay used in Example 1 was developed using the ELISA-based MSD electrochemiluminescence assay platform.
Endogenous Huntingtin Protein Assay
Meso Scale Discovery (MSD) 96-well or 384-well plates were coated overnight at 4° C. with MW1 (expanded polyglutamine) or MAB2166 monoclonal antibody (for capture) at a concentration of 1 μg/mL in PBS (30 μL per well). Plates were then washed three times with […] wash buffer (0.05% Tween-20 in PBS) and blocked (100 μL blocking buffer; 5% BSA in PBS) for 4-5 hours at room temperature with rotational shaking and then washed three times with wash buffer.
Samples (25 μL) were transferred to the antibody-coated MSD plate and incubated overnight at 4° C. After removal of the lysates, the plate was washed three times with wash buffer, and 25 μL of #5656S (Cell signaling; rabbit monoclonal) secondary antibody (diluted to 0.25 μg/mL in 0.05% Tween-20 in blocking buffer) was added to each well and incubated with shaking for 1 Hour at room temperature. Following incubation with the secondary antibody, the wells were rinsed with wash buffer after which 25 μL of goat anti-rabbit SULFO TAG secondary detection antibody (required aspect of the MSD system) (diluted to 0.25 μg/mL in 0.05% Tween-20 in blocking buffer) was added to each well and incubated with shaking for 1 hour at room temperature. After rinsing three times with wash buffer, 150 μL of read buffer T with surfactant (MSD) were added to each empty well, and the plate was imaged on a SI 6000 imager (MSD) according to manufacturers' instructions provided for 96- or 384-well plates.

**Q.** How did the IC50 turn out when `Cc1cn2nc(-c3cc(=O)n4cc(N5CCN[C@H](C)C5)ccc4n3)cc(C)c2n1` [Compound 886, (R)-2-(2,8-dimethylimidazo[1,2-b]pyridazin-6-yl)-7-(3-methylpiperazin-1-yl)-4H-pyrido[1,2-a]pyrimidin-4-one] was run?
**A.** ≤ 0.1 µM

**Q.** With `Cc1cn2nc(-c3cc(=O)n4cc(N5CCNC(C)(C)C5)ccc4n3)cc(C)c2n1` [Compound 899, 2-(2,8-dimethylimidazo[1,2-b]pyridazin-6-yl)-7-(3,3-dimethylpiperazin-1-yl)-4H-pyrido[1,2-a]pyrimidin-4-one] as the compound, how does the IC50 read?
**A.** 0.1 to 0.5 µM

**Q.** How did the IC50 turn out when `Cc1cn2nc(-c3cc(=O)n4cc(N5CCNC6(CC6)C5)cc(C)c4n3)cc(C)c2n1` [Compound 905, 2-(2,8-dimethylimidazo[1,2-b]pyridazin-6-yl)-9-methyl-7-(4,7-diazaspiro[2.5]octan-7-yl)-4H-pyrido[1,2-a]pyrimidin-4-one] was run?
**A.** 1 to 3 µM
